In patent US20180353460A1, “METHODS OF TREATING UROLOGICAL DISORDERS USING SARMs” (priority 2014, published 2018):
“And” between values parts separate entries of the source, which are not always exact repeats. Equal entries are not always repeated.

What was measured:
Assay type in all cases: in vivo, rat
[1] = tested on: prostate, seminal vesicles and levator ani muscle; experiment: Androgenic and anabolic activity in castrated (ORX) male rats, daily oral gavage for fourteen days; details: castrated rats, comparators
Protocol: Male Sprague-Dawley rats weighing approximately 200 g were purchased from Harlan Bioproducts for Science (Indianapolis, Ind.). […] The anabolic and androgenic activity of compound of Formula VIII in intact animals was tested, as well as a dose response evaluation in acutely orchidectomized (ORX) animals. Regenerative effects of the compound of Formula VIII in chronically (9 days) ORX rats was similarly evaluated.
The test article for this study was weighed and dissolved in 10% DMSO (Fisher) diluted with PEG 300 (Acros Organics, NJ) for preparation of the appropriate dosage concentrations. […] Animals were randomly assigned to one of seven groups consisting of 4 to 5 animals per group. Control groups (intact and ORX) were administered vehicle daily. Compound of Formula VIII was administered via oral gavage at doses of 0.01, 0.03, 0.1, 0.3, 0.75, and 1 mg/day to both intact and ORX groups. Where appropriate, animals were castrated on day one of the study. Treatment with compound of Formula VIII began nine days post ORX and was administered daily via oral gavage for fourteen days.
(§1) In addition, ventral prostate, seminal vesicles, and levator ani muscle were removed, individually weighed, normalized to body weight, and expressed as a percentage of intact control. Student's T-test was used to compare individual dose groups to the intact control group. Significance was defined a priori as a P-value <0.05. Ventral prostate and seminal vesicle weights were evaluated as a measure of androgenic activity, whereas levator ani muscle weight was evaluated as a measure of anabolic activity. Blood was collected from the abdominal aorta, centrifuged, and sera were frozen at −80° C. prior to determination of serum hormone levels. Serum luteinizing hormone (LH) and follicle stimulating hormone (FSH) concentrations were determined.
Male Sprague-Dawley rats weighing approximately 200 g were purchased from Harlan Bioproducts for Science (Indianapolis, Ind.). […] Anabolic and androgenic activity of compound of Formula IX in intact animals was evaluated, and the dose response in acutely orchidectomized (ORX) animals was evaluated as well. Regenerative effects of compound of Formula IX in chronically (9 days) ORX rats were also assessed.
The compound was weighed and dissolved in 10% DMSO (Fisher) diluted with PEG 300 (Acros Organics, NJ) for preparation of the appropriate dosage concentrations. […] Intact and ORX animals were randomly assigned to one of seven groups consisting of 4 to 5 animals per group. Control groups (intact and ORX) were administered vehicle daily. Compound of Formula IX was administered via oral gavage at doses of 0.01, 0.03, 0.1, 0.3, 0.75, and 1 mg/day to both intact and ORX groups.
as §1, with “Castrated animals (on day one of the study) were randomly assigned to dose groups (4-5 animals/group) of 0.01, 0.03, 0.1, 0.3, 0.75, and 1 mg/day, for dose-response evaluation. Dosing began nine days post ORX and was administered daily via oral gavage for fourteen days. […] In” for “In”, “As a measure of androgenic activity, ventral” for “Ventral”, “evaluated,” for “evaluated as a measure of androgenic activity,”, “lutenizing” for “luteinizing”
Male Sprague-Dawley rats weighing approximately 200 g were purchased from Harlan Bioproducts for Science (Indianapolis, Ind.).

[2] = tested on: prostate, seminal vesicles and levator ani muscle; experiment: Androgenic and anabolic effects in intact, hemi-orchidectomized and castrated rats, subdermal osmotic pumps, 14 days; details: 0.5 mg/day; for Levator Ani weight / prostate weight / seminal vesicle weight: n = 5
Protocol: Male Sprague-Dawley rats were purchased from Harlan Biosciences (Indianapolis, Ind.). The animals were maintained on a 12 h cycle of light and dark with food and water available ad libitum. All animal studies were reviewed and approved. Immature male Sprague-Dawley rats weighing 187 to 214 g were randomly distributed into 9 groups of 5 animals. One day before the initiation of drug treatment, groups 4 through 6 and groups 7 through 9 received unilateral or bilateral orchidectomy, respectively, via a midline scrotal incision. […] All drugs given to animals were freshly prepared as solutions in polyethylene glycol 300 (PEG 300). Groups 4 and 7 received treatment with vehicle alone (i.e., PEG 300). […] Animals in groups 2, 5, and 8 received compound of Formula XII (0.5 mg/day) via implantation of subdermal osmotic pumps. After 14 days of drug treatment, rats were weighed, anesthetized, and sacrificed. The ventral prostates, seminal vesicles, and levator ani muscle were removed and weighed. Osmotic pumps were also removed from animals to check for correct pump operation. The weights of all organs were normalized to body weight, and analyzed for any statistically significant differences between groups using single-factor ANOVA with the alpha value set a priori at p<0.05. The weights of prostates and seminal vesicles were used as indices for evaluation of androgenic activity, and the levator ani muscle weight was used to evaluate the anabolic activity. Statistical analyses of parameters from complete blood count or serum chemical profiling, wherever applicable, were performed by single-factor ANOVA with the alpha value set a priori at p<0.05.

[3] = tested on: prostate, seminal vesicles and levator ani muscle; experiment: Androgenic and anabolic activity in castrated immature male rats, subcutaneous osmotic pumps, 14 days; details: castrated rats, 14 days, FIG. 2
Protocol: Immature male Sprague-Dawley rats, weighing 90 to 100 g, were purchased from Harlan Biosciences (Indianapolis, Ind.). The animals were maintained on a 12 hour light-dark cycle with food and water available ad libitum.
Rats were randomly distributed into treatment groups groups. One day prior to the start of drug treatment, animals were individually removed from the cage, weighed and anesthetized with an intraperitoneal dose of ketamine/xylazine (87/13 mg/kg; approximately 1 mL per kg). When appropriately anesthetized (i.e., no response to toe pinch), the animals' ears were marked for identification purposes. Animals were then placed on a sterile pad and their abdomen and scrotum washed with betadine and 70% alcohol. The testes were removed via a midline scrotal incision, with sterile suture being used to ligate supra-testicular tissue prior to surgical removal of each testis. The surgical wound site was closed with sterile stainless steel wound clips, and the site cleaned with betadine. The animals were allowed to recover on a sterile pad (until able to stand) and then returned to their cage.
Twenty-four hours later, animals were re-anesthetized with ketamine/xylazine, and an Alzet osmotic pump(s) (model 2002) was placed subcutaneouly in the scapular region. In this instance, the scapular region was shaved and cleaned (betadine and alcohol) and a small incision (1 cm) made using a sterile scalpel. The osmotic pump was inserted and the wound closed with a sterile stainless steel wound clip. Animals were allowed to recover and were returned to their cage. Osmotic pumps contained the appropriate treatment dissolved in polyethylene glycol 300 (PEG300). Osmotic pumps were filled with the appropriate solution one day prior to implantation. Animals were monitored daily for signs of acute toxicity to drug treatment (e.g., lethargy, rough coat).
After 14 days of drug treatment, rats were anesthetized with ketamine/xylazine. Animals were then sacrificed by exsanguinations under anesthesia. A blood sample was collected by venipuncture of the abdominal aorta, and submitted for complete blood cell analysis. A portion of the blood was placed in a separate tube, centrifuged at 12,000 g for 1 minute, and the plasma layer removed and frozen at −20° C. The ventral prostates, seminal vesicles, levator ani muscle, liver, kidneys, spleen, lungs, and heart were removed, cleared of extraneous tissue, weighed, and placed in vials containing 10% neutral buffered formalin. Preserved tissues were sent for histopathological analysis.
For data analysis, the weights of all organs were normalized to body weight, and analyzed for any statistical significant difference by single-factor ANOVA. The weights of prostate and seminal vesicle were used as indexes for evaluation of androgenic activity, and the levator ani muscle weight was used to evaluate the anabolic activity.

[4] = tested on: prostate, seminal vesicles and levator ani muscle; experiment: Androgenic and anabolic activity in intact male rats, daily oral gavage
Protocol: Male Sprague-Dawley rats weighing approximately 200 g were purchased from Harlan Bioproducts for Science (Indianapolis, Ind.). The animals were maintained on a 12 h light/dark cycle with food (7012C LM-485 Mouse/Rat Sterilizable Diet, Harlan Teklad, Madison, Wis.) and water available ad libitum. The anabolic and androgenic activity of compound of Formula VIII in intact animals was tested, as well as a dose response evaluation in acutely orchidectomized (ORX) animals. Regenerative effects of the compound of Formula VIII in chronically (9 days) ORX rats was similarly evaluated.
The test article for this study was weighed and dissolved in 10% DMSO (Fisher) diluted with PEG 300 (Acros Organics, NJ) for preparation of the appropriate dosage concentrations. The animals were housed in groups of 2 to 3 animals per cage. Animals were randomly assigned to one of seven groups consisting of 4 to 5 animals per group. Control groups (intact and ORX) were administered vehicle daily. Compound of Formula VIII was administered via oral gavage at doses of 0.01, 0.03, 0.1, 0.3, 0.75, and 1 mg/day to both intact and ORX groups. Where appropriate, animals were castrated on day one of the study. Treatment with compound of Formula VIII began nine days post ORX and was administered daily via oral gavage for fourteen days.
as §1, with “The animals were sacrificed under anesthesia (ketamine/xyalzine, 87:13 mg/kg) and body weights were recorded. In” for “In”
Male Sprague-Dawley rats weighing approximately 200 g were purchased from Harlan Bioproducts for Science (Indianapolis, Ind.). The animals were maintained on a 12 h light/dark cycle with food (7012C LM-485 Mouse/Rat Sterilizable Diet, Harlan Teklad, Madison, Wis.) and water available ad libitum. Anabolic and androgenic activity of compound of Formula IX in intact animals was evaluated, and the dose response in acutely orchidectomized (ORX) animals was evaluated as well. Regenerative effects of compound of Formula IX in chronically (9 days) ORX rats were also assessed.
The compound was weighed and dissolved in 10% DMSO (Fisher) diluted with PEG 300 (Acros Organics, NJ) for preparation of the appropriate dosage concentrations. The animals were housed in groups of 2 to 3 animals per cage. Intact and ORX animals were randomly assigned to one of seven groups consisting of 4 to 5 animals per group. Control groups (intact and ORX) were administered vehicle daily. Compound of Formula IX was administered via oral gavage at doses of 0.01, 0.03, 0.1, 0.3, 0.75, and 1 mg/day to both intact and ORX groups.
Castrated animals (on day one of the study) were randomly assigned to dose groups (4-5 animals/group) of 0.01, 0.03, 0.1, 0.3, 0.75, and 1 mg/day, for dose-response evaluation. Dosing began nine days post ORX and was administered daily via oral gavage for fourteen days. The animals were sacrificed under anesthesia (ketamine/xyalzine, 87:13 mg/kg) after a 14-day dosing regimen, and body weights were recorded. In addition, ventral prostate, seminal vesicles, and levator ani muscle were removed, individually weighed, normalized to body weight, and expressed as a percentage of intact control. Student's T-test was used to compare individual dose groups to the intact control group. […]

Structure (SMILES)	maximal stimulation of levator ani muscle weight [1]	Levator Ani weight ([2]; Castrated rats)	prostate weight ([2]; Castrated rats)	seminal vesicle weight ([2]; Castrated rats)	Levator Ani weight ([2]; Hemi-castrated rats)	prostate weight ([2]; Hemi-castrated rats)	seminal vesicle weight ([2]; Hemi-castrated rats)	Levator Ani weight ([2]; Intact rats)	prostate weight ([2]; Intact rats)	seminal vesicle weight ([2]; Intact rats)	other results
CC(=O)Nc1ccc(OC[C@](C)(O)C(=O)Nc2ccc([N+](=O)[O-])c(C(F)(F)F)c2)cc1 [XII, S-3-(4-acetylaminophenoxy)-2-hydroxy-2-methyl-N-(4-nitro-3-trifluoromethylphenyl) propionamide]	101%	100.65 ± 10.86 % of intact control	32.55 ± 11.65 % of intact control	16.47 ± 5.21 % of intact control	108 % of intact control and 108.10 ± 8.92 % of intact control	75 % of intact control and 74.69 ± 8.44 % of intact control	79 % of intact control and 78.55 ± 13.58 % of intact control	109.15 ± 14.68 % of intact control	79 % of intact control and 79.41 ± 9.32 % of intact control	90.54 ± 12.10 % of intact control	adverse pharmacologic effects [2]: No adverse pharmacologic effects were observed
CCC(=O)O[C@H]1CC[C@H]2[C@@H]3CCC4=CC(=O)CC[C@]4(C)[C@H]3CC[C@]12C [TP, testosterone propionate, reference compound]	104%	87.27 ± 10.25 % of intact control	76.78 ± 10.43 % of intact control	63.48 ± 17.05 % of intact control	98.63 ± 10.47 % of intact control	98.57 ± 7.98 % of intact control	114.19 ± 23.81 % of intact control	95.61 ± 9.34 % of intact control	97.45 ± 10.82 % of intact control	103.95 ± 13.23 % of intact control	weights of prostate, seminal vesicle and levator ani muscle [3]: increased the weights of prostate, seminal vesicle, and levator ani muscle in castrated rats in a dose-dependent manner
C[C@](O)(COc1ccc(Cl)c(F)c1)C(=O)Nc1ccc(C#N)c(C(F)(F)F)c1 [XIV, (S)-3-(4-chloro-3-fluorophenoxy)-N-(4-cyano-3-(trifluoromethyl)phenyl)-2-hydroxy-2-methylpropanamide]											levator ani muscle weight ([4]; 0.01 mg/day): 100%±10%; prostate weight ([4]; 0.01 mg/day): 117%±20%; levator ani muscle weight ([4]; 0.03 mg/day): 98%±7%; prostate weight ([4]; 0.03 mg/day): 98%±15%; levator ani muscle weight ([4]; 0.1 mg/day): 110%±5%; prostate weight ([4]; 0.1 mg/day): 82%±20%; levator ani muscle weight ([4]; 0.3 mg/day): 110%±5%; prostate weight ([4]; 0.3 mg/day): 62%±5%; levator ani muscle weight ([4]; 0.75 mg/day): 125%±10%; prostate weight ([4]; 0.75 mg/day): 107%±30%; levator ani muscle weight ([4]; 1 mg/day): 129%±10%; prostate weight ([4]; 1 mg/day): 110%±14%
